From patent US9173917B2, “Methods for reducing oxidative stress in a cell with a sulfhydryl protected glutathione prodrug” (Max International, LLC, priority 2003, dated 2015)
Entries after “also recorded” stand apart in the source; their conditions may differ.

Tests used:
[1] = system: ACP-induced hepatotoxicity; test: Protection from ACP-induced hepatotoxicity in mice (plasma ALT levels); format: in vivo, Male Swiss-Webster mice
Experimental: Male Swiss-Webster mice weighing 24-34 g were administered ACP [360 mg (or 2.45 mmol)/kg, i.p.].
In protocol 4′B, a priming dose of the prodrug (1.25 mmole/kg, i.p.) was administered 60 min prior to ACP followed by a subsequent dose (2.50 mmol/kg) 30 min post-ACP.
In protocol 3′B, the pre- and post-ACP doses were reversed.
In protocol 1, a single dose of drug was administered 30 min post-ACP.
Protocol 1′ is identical to 3′B except that the pH of the injection solution was not adjusted. In the B series, the pH of the injection solution was adjusted to neutrality with dilute, aqueous NaOH or HCl

[2] = unlike GSH or its carboxy esters with free -SH groups that are subject to oxidation; refs (9, 17); cited from earlier work

N[C@H](CSSC[C@H](NC(=O)CC[C@H](N)C(=O)O)C(=O)NCC(=O)O)C(=O)O [D-CySSG]
hepatoprotection against ACP toxicity ([1]; FIG. 1, mouse model, protocol 4'B): lack of significant activity; also recorded: not hepatoprotective; also recorded: lack of hepatoprotection | plasma alanine aminotransferase (ALT) levels of ACP-treated mice ([1]; FIG. 1, protocol 4'B: prodrug 1.25 mmole/kg i.p. 60 min prior to ACP, 2.50 mmol/kg 30 min post-ACP, ACP 360 mg/kg i.p., ALT 24 hrs post-ACP): statistically similar to that for ACP alone; also recorded: comparable to that for ACP alone

N[C@@H](CCC(=O)N[C@@H](CSSC[C@H](N)C(=O)O)C(=O)NCC(=O)O)C(=O)O [L-CySSG, L-cysteine-GSH disulfide]
stability [2]: stable

CCOC(=O)CNC(=O)C(CSC(C)=O)NC(=O)CCC(N)C(=O)O (stereo not shown) [S-Ac-GSH-OEt, S-acetylglutathione ethyl ester]
usefulness for treating/preventing oxidative stress in the mouse model ([1]; FIGS. 1, 3 and 4): useful for treating oxidative stress
